Reference: patent US10822325B2, “Human GLUT5 specific inhibitors and methods of treatment” (UNM RAINFOREST INNOVATIONS, priority 2015, dated 2020)
Entries after “also recorded” stand apart in the source; their conditions may differ.

target: T1, GlcPSe (Staphylococcus epidermidis, UniProt A0A0H2VG78); experiment: Glucose uptake by GlcPSe in right-side-out vesicles of JM1100 E. coli cells; format: biochemical; conditions: 2 mM compound, RSO vesicles, 30 μM C14-glucose, one minute
T1 construct: made in house; host or cells: Escherichia coli JM1100 (pBAD); right-side-out membrane vesicles
T1 sequence (A0A0H2VG78 1-446): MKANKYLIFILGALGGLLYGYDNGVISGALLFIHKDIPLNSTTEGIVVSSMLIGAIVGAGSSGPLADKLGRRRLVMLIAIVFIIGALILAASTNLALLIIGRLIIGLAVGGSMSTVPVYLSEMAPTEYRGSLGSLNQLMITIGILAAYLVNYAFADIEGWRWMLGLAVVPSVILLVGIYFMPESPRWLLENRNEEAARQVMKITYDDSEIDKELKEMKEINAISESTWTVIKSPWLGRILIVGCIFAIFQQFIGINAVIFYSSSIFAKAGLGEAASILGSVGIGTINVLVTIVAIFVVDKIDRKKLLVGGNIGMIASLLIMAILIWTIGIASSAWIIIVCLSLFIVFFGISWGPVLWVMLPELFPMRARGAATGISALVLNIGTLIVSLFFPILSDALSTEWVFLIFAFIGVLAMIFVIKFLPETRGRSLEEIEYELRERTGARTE
Procedure: Glucose transport assay for GlcPSe, wild-type and F348H mutant, was performed as described previouslyl^16. GlcPSe was cloned into the pBAD vector (Invitrogen) with C-terminal 6×His tag. F348H mutation was done with the site-directed mutagenesis method^37. GlcPSe proteins were expressed in the glucose transporter deficient Escherichia coli strain JM1100. Cells were grown at 37° C., in Luria Broth medium, with 100 μg/mL ampicillin. Protein expression was induced with 0.3 mM L-arabinose at O.D.600 nm 0.6. After 3 hours, cells were harvested by centrifugation at 2,500 g for 5 min. The right-side-out (RSO) membrane vesicles of JM1100 E. coli cells were prepared as described previouslyl^16,39,40. Transport assay was initiated by the addition of ^14C-radiolabeled glucose (Moravek Biochemicals) to 50 μL RSO vesicles in 100 mM KPi buffer pH 7.5, at O.D.600 nm of 2.0. After one minute, the transport was stopped and the radioactivity was measured as described below. When inhibitors were used, they were incubated with RSO vesicles 1 minute before transport initiation.
Given the partial conservation of the MSNBA binding site in other GLUTs and GlcPSe, we checked whether MSNBA inhibits GLUT1-4 or GlcPSe. Glucose transport of GLUT1, GLUT2, GLUT3 and GLUT4 and fructose transport of GLUT2 were assayed by the entrance counter-flow method in proteoliposomes constructed with the respective recombinant human GLUT produced in insect cells. Glucose transport of GlcPSe was measured in right-side-out (RSO) vesicles of JM1100 E. coli cells (that lack endogenous glucose transport) expressing GlcPSe.

SMILES	effect on GlcPSe glucose transport
O=C(CCc1ccc(O)cc1)c1c(O)cc(O)cc1O [phloretin, reference compound]	inhibited
CS(=O)(=O)c1ccc(Nc2ccc3c(c2)OCO3)c([N+](=O)[O-])c1 [MSNBA, N-[4-(methylsulfonyl)-2-nitrophenyl]-1,3-benzodioxol-5-amine]	did not affect; also recorded: did not influence
C=C1[C@@H](C)[C@H]2[C@H](Cc3ccccc3)NC(=O)[C@]23OC(=O)/C=C/[C@H](O)CCC[C@@H](C)C/C=C/[C@H]3[C@@H]1O [cytochalasin B, reference compound]	inhibited
